Data taken from US7351399B2, “Prodrugs for phosphorus-containing compounds” (Metabasis Therapeutics, Inc., priority 1998, dated 2008).
pIC50: −log10 of the molar value. “Also recorded” adds a separate entry of the source.

Legend:
[1] = tested on: human liver microsomes, p450 isozymes (CYP3A4, CYP1A2, CYP2C9); test: Identification of the p450 isozyme involved in the activation, with isozyme inhibitors (Example F); settings: 0-100 μM p450 isozyme inhibitor, 250 μM 30.1
[2] = Stability in plasma (Example C); settings: 37° C.; 5-8 hours; HPLC
Procedure: Methods: Compounds were incubated in plasma at 37° C., and aliqouts removed at appropriate time points over the course of 5-8 hours. The aliquots were extracted with 1.5 volumes of methanol and clarified by centrifugation. Supernatants were then evaporated to dryness and the residues reconstituted with 100 μL of isoionic saline and then analyzed by reverse phase HPLC.

[3] = tested on: glucose production (gluconeogenesis) in isolated rat hepatocytes; test: Inhibition of glucose production in rat hepatocytes (Example J); format: cell-based; settings: lactate 10 mM / pyruvate 1 mM, 1 hour
Procedure: Select prodrugs of FBPase inhibitors were tested for inhibition of glucose production in isolated rat hepatocytes.
After a 10 minute equilibration period, lactate and pyruvate were added to 10 mM and 1 mM concentrations, respectively. Addition of gluconeogenic substrates was immediately followed by that of appropriate concentrations of test compound. After 1 hour, an aliquot (0.25 ml) was removed, transferred to an Eppendorf tube and centrifuged. The supernatant (50 μl) was then assayed for glucose content using a Glucose Oxidase kit (Sigma Chemical Co.) as per the manufacturer's instructions.
Results: The following table depicts the inhibitory effect on gluconeogenesis for several prodrugs prepared in the Examples.

[4] = Hepatic PMEA-diphosphate and plasma PMEA after intravenous administration (Example P); format: in vivo, rat; settings: 10 mg/kg PMEA equivalents i.v.; fasted rats
Procedure: Methods. […] At appropriate time points, blood and liver samples were obtained and processed as described in Example O. PMEA-diphosphate in liver and PMEA in plasma were analyzed by HPLC as described for araATP and ara-hypoxanthine, respectively, in Example O.

isolated rat hepatocytes [5] = test: Generation of PMEApp in isolated rat hepatocytes (Example V); format: cell-based; settings: Dose 250 μM; 4 h; triplicate
Procedure: Methods: Hepatocytes were prepared from fed rats and incubated as described in Example I. Test compounds were prepared in DMSO and-diluted to 250 μM in the cell suspensions. Reactions were performed in triplicate. After 4 hours of incubation, aliquots of the suspension were removed and processed as described in Example I. Quantitation of PMEApp was performed by anion exchange HPLC also as described in Example I.

[6] = Renal excretion of PMEA after intravenous administration (Example Q); settings: i.v.; for Renal excretion of PMEA, of the administered dose: rats, 24 hour urine
Procedure: Rats were subsequently caged in metabolic cages and urine collected over a 24 hour period. Urine samples were extracted with 70% methanol/2% acetic acid, vortexed and clarified by centrifugation. Supernatants were analyzed for PMEA content by reverse phase HPLC. A Beckman Ultrasphere ODS (4.6×150 mm) column was used with a gradient from 20 mM potassium phosphate pH 6.2 to 50% acetonitrile.

[7] = Oral bioavailability by urinary excretion method (Example M); format: in vivo; settings: oral gavage 20 or 40 mg/kg parent equivalents; 24 h urine vs i.v. parent ~10 mg/kg; rat
Procedure: The oral bioavailability of prodrugs of a variety of phosphonic acid FBPase inhibitors was estimated by a urinary excretion method in rat.
Prodrugs of FBPase inhibitors were dissolved in 10% ethanol/90% polyethylene glycol (mw 400) and administered by oral gavage at doses of 20 or 40 mg/kg parent compound equivalents to 6-hour fasted, Sprague Dawley rats (220-240 g). The rats were subsequently placed in metabolic cages and urine was collected for 24 hours. The quantity of parent compound excreted into urine was determined by HPLC analysis. An ODS column eluted with a gradient from potassium phosphate buffer, pH 5.5 to acetonitrile was employed for these measurements. Detection was at 310-325 nm. […] Parent compounds were typically dissolved in dimethyl sulfoxide, and administered via the tail vein in animals that were briefly anesthetized with halothane.
Results for the FBPase inhibitor prodrugs were as follows

isolated rat hepatocytes [8] = test: Activation in isolated rat hepatocytes (Example I); settings: 100 μM prodrug; fed rat hepatocytes
Procedure: Methods: Hepatocytes were prepared from fed Sprague-Dawley rats (250-300 g) according to the procedure of Berry and Friend (Berry, M. N., Friend, D. S. J. Cell Biol. 43, 506-520 (1969)) as modified by Groen (Groen, A. K. et al. Eur J. Biochem 122, 87-93 (1982)). Hepatocytes (75 mg wet weight/ml) were incubated in 1 ml Krebs-bicarbonate buffer containing 10 mM glucose, and 1 mg/ml BSA. […] Prodrugs were dissolved in DMSO to yield 10 mM stock solutions, and then diluted into the cell suspension to yield a final concentration of 100 μM. At appropriate time points over the course of one hour, aliquots of the cell suspension were removed and spun through a silicon/mineral oil layer into 10% perchloric acid. The cell extracts in the acid layers were neutralized, and the intracellular prodrug metabolite content analyzed by reverse phase HPLC. An ODS column was used for analysis. It was eluted with a gradient from 10 mM sodium phosphate, pH 5.5 to 75% acetonitrile. Detection was at 310 nm. Peaks on the chromatograms were identified by comparison to the retention times and spectra of standards of prodrug and parent compound.

[9] = in vivo; cited from earlier work
[10] = Delivery of parent compound to liver after intraperitoneal 1.3 (Example U); format: in vivo, rat; settings: 1.3 50 mg/kg i.p.
Procedure: Methods: 1.3 was dissolved in DMSO and administered intraperitoneally to fasted rats at a dose of 50 mg/kg. At various time points following drug administration, animals were anesthetized with halothane. The peritoneal cavity was then opened and a blood sample was obtained from the abdominal vena cava and the liver freeze-clamped and excised. Blood and liver samples were processed as described in Example P and analyzed for 6-Amino-9-neopentyl-8-(2-phosphonofuranyl)purine content as described in Example I.
Results: 6-Amino-9-neopentyl-8-(2-phosphonofuranyl)purine was detected both in plasma and liver following 1.3 administration. Peak levels measured at the earliest time point of 1 hour were 5.8 μM in plasma and 5 nmoles/g tissue in liver. 6-Amino-9-neopentyl-8-(2-phosphonofuranyl)purine persisted in plasma and liver for 4 hours (the last time point measured).

[11] = Chemical stability in isotonic saline and phosphate buffer (Example A); format: physicochemical; settings: 100 μM; phosphate buffer pH 7.4; 1 hour; room temperature
Procedure: Methods: Aliquots of a 10 μg/mL solution of 30.1 in isotonic saline and in 100 mM potassium phosphate buffers at pH 3, 7, and 9 were sampled after 1, 2, 5, and 7 days of incubation at room temperature and analyzed by HPLC. A Beckman Ultrasphere C8 column (4.6×150 mm) was employed and eluted with a gradient from 0.1% v/v trifluoroacetic acid to 80% methanol at a flow rate of 1.0 mL/min. Detection was at 254 nm. Using these conditions, the four isomers of 30.1 were readily separated and quantified. 1.3 was incubated at 100 μM in phosphate buffer at pH 7.4 and analyzed by HPLC as described in Example I following 1 hour of incubation at room temperature.
Thus, prodrugs of the invention are stable under a broad pH range.

In the case of `CC(=O)N1CCN(c2ccc(OCC3COC(Cn4ccnc4)(c4ccc(Cl)cc4Cl)O3)cc2)CC1` (centres unmarked) [Ketoconazole], the “inhibition of the formation of ara-AMP from 30.1” value (from here on “inhibition … from 30.1”) [1] was “dose-dependent”.

With `Nc1ncnc2c1nc(-c1ccc(P3(=O)OC4CC(O)CC(C4)O3)o1)n2CCc1ccccc1` (centres unmarked) [Compound 1.1, 6-Amino-8-(5′-hydroxyl-1′,3′-cyclohexyl)phosphonofuranyl-9-phenethyl purine] the “metabolism / degradation in fresh rat plasma” value (shortened to “metabolism / degradation”) [2] was “not degraded; also recorded: no evidence of metabolism”.

For `COc1ccc(C2CCOP(=O)(c3ccc(-c4nc5ccc(Cl)cc5n4CC(C)C)o3)O2)cc1Br` (centres unmarked) [Compound 6.1, 6-Chloro-1-isobutyl-2-{5-[1′-(3-bromo-4-methoxyphenyl)-propan-1′,3′-yl]phosphono-2-furanyl}benzimidazole], the “% inhibition @ 100 μM” value [3] was 11%.

For `CC(C)(C)C(=O)OCOP(=O)(COCCn1cnc2c(N)ncnc21)OCOC(=O)C(C)(C)C` [bisPOM-PMEA, reference compound], the “PMEA-diphosphate levels in liver” value [4] was “readily detectable levels”, the PMEApp (isolated rat hepatocytes [5]) was 200 ± 33 nmol/g and the “Renal excretion of PMEA, of the administered dose” value [6] was 54%. The “Renal excretion of PMEA, of the administered dose” value ([6]; listed as bis POM prodrug of PMEA) was “high levels of PMEA in the urine”.

In the case of `CCc1cc(F)c(N)c2nc(-c3ccc(P4(=O)OCC(COC(C)=O)CO4)o3)n(CC(C)C)c12` (centres unmarked) [Compound 7.4, 4-Amino-5-fluoro-7-ethyl-1-isobutyl-2-{5-[2′-(acetoxymethyl)-propan-1′,3′-yl]phosphono-2-furanyl}benzimidazole], the pIC50 [3] was 4.60.

For `CC(C)Cn1c(-c2ccc(P3(=O)OCCC(c4ccc(F)cc4)O3)o2)nc2ccc(Cl)cc21` (centres unmarked) [Compound 5.2, 6-Chloro-1-isobutyl-2-{5-[1′-(4-fluorophenyl)-propan-1′,3′-yl]phosphono-2-furanyl}benzimidazole], the “% OBAV Prodrug” value [7] was 2.4%.

In the case of `CC(=O)OCC1COP(=O)(c2ccc(-c3nc4ccc(Cl)cc4n3CC(C)C)o2)OC1` (centres unmarked) [Compound 7.2, 6-Chloro-1-isobutyl-2-{5-[2′-(acetoxymethyl)-propan-1′,3′-yl]phosphono-2-furanyl}benzimidazole], the “% OBAV Prodrug” value [7] was 12.5%, the pIC50 [3] was 4.05 and the “peak intrahepatocyte levels of parent compound” value (isolated rat hepatocytes [8]) was roughly 500 nmoles/g cells.

For `Nc1ncnc2c1ncn2[C@@H]1O[C@H](CO)[C@@H](O)[C@@H]1O` [araA, 9-b-D-arabinofuranosyladenine], the oral bioavailability [9] is given as “low oral bioavailability”.

In the case of `Nc1ccc(S(=O)(=O)Nc2ccnn2-c2ccccc2)cc1` [sulfaphenazole], the “inhibition … from 30.1” value [1] was “no significant inhibition”.

In the case of `CC(C)(C)Cn1c(-c2ccc(P3(=O)OC4CC(O)CC(C4)O3)o2)nc2c(N)ncnc21` (centres unmarked) [Compound 1.2, 6-Amino-8-(5′-hydroxyl-1′,3′-cyclohexyl)phosphonofuranyl-9-neopentyl purine], the “metabolism / degradation” value [2] was “not degraded”.

With `CC(=O)N[C@@H]1COP(=O)(c2ccc(-c3nc4ccc(Cl)cc4n3CC(C)C)o2)O[C@H]1c1ccc([N+](=O)[O-])cc1` (stereo partly drawn) [Compound 2.4, 6-Chloro-1-isobutyl-2-{5-[1S-(4-nitrophenyl)-2R-acetylamino-propan-1,3-yl]phosphono-2-furanyl}benzimidazole] the “% OBAV Prodrug” value [7] was 8.7% and the “% inhibition @ 100 μM” value [3] was 40%.

In the case of `CC(C)Cn1c(-c2ccc(P3(=O)OCCC(c4ccncc4)O3)o2)nc2ccc(Cl)cc21` (centres unmarked) [Compound 4.3, 6-Chloro-1-isobutyl-2-{5-[1′-(4-pyridyl)-propan-1′,3′-yl]phosphono-2-furanyl}benzimidazole], the “% OBAV Prodrug” value [7] was 11.6% and the “% inhibition @ 100 μM” value [3] was 55%.

With `Cc1c(Cl)cc2c(nc(-c3ccc(P4(=O)OC5CC(O)CC(C5)O4)o3)n2CC2CC2)c1C` (centres unmarked) [Compound 1.4, 6-Chloro-4,5-dimethyl-1-cyclopropylmethyl-2-[1′-hydroxy-3′,5′-cyclohexylphosphono-5-furanyl]benzimidazole] the “% inhibition @ 100 μM” value [3] was 36%.

For `Nc1ncnc2c1ncn2CCOCP1(=O)OCCC(c2ccncc2)O1` (centres unmarked) [Compound 28.4, 9-[2-(1-(4-Pyridyl)-1,3-propylphosphonomethoxy)ethyl]adenine], the “PMEA-diphosphate levels in liver” value [4] was “readily detectable levels; also recorded: high PMEA disphosphate levels” and the “PMEA in the blood or urine” value [6] was “no detectable PMEA”.

In the case of `Cc1nc2c([nH]1)c(=O)n(C)c(=O)n2Cc1ccco1` [furafylline], the “inhibition … from 30.1” value [1] was “no significant inhibition”.

For `CC(C)(C)Cn1c(-c2ccc(P3(=O)OC4CC(O)CC(C4)O3)o2)nc2c(N)ncnc21` (single isomer, unassigned) [Compound 1.3, 6-Amino-8-(5′-hydroxyl-1′,3′ cyclohexyl)phosphonofuranyl-9-neopentyl purine], the “metabolism / degradation” value [2] was “no evidence of metabolism”, the “peak level of parent 6-Amino-9-neopentyl-8-(2-phosphonofuranyl)purine in liver” value ([10]; fasted rats, 1 hour) was 5 nmoles/g tissue and the “peak level of parent 6-Amino-9-neopentyl-8-(2-phosphonofuranyl)purine in plasma” value ([10]; fasted rats, 1 hour) was 5.8 µM. For the same compound, the “persistence of parent compound in plasma and liver” value ([10]; last time point measured) was 4 h and the “stability in phosphate buffer” value [11] was “fully stable”.

For `COC(=O)OCC1COP(=O)(c2ccc(-c3nc4ccc(Cl)cc4n3CC(C)C)o2)OC1` (centres unmarked) [Compound 7.3, 6-Chloro-1-isobutyl-2-{5-[2′-(methoxycarbonytoxymethyl)-propan-1′,3′-yl]phosphono-2-furanyl}benzimidazole], the “% OBAV Prodrug” value [7] was 14.1% and the “% inhibition @ 100 μM” value [3] was 61%.

With `CC(C)Cn1c(-c2ccc(P3(=O)OCCC(c4ccccn4)O3)o2)nc2ccc(Cl)cc21` (centres unmarked) [Compound 4.2, 6-Chloro-1-isobutyl-2-{5-[1′-(2-pyridyl)-propan-1′,3′-yl]phosphono-2-furanyl}benzimidazole] the “% OBAV Prodrug” value [7] was 8.5% and the “% inhibition @ 100 μM” value [3] was 68%.
